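Tested at 5 concentrations; 48 h exposure; 96-well plates; endpoints linearly interpolated, else capped at highest concentration. The concentration for 50% growth inhibition is given as GI50. TGI is the concentration that stops growth completely.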
What was measured:
Test in all cases: growth of human tumour cells (NCI), 48 h
[1] = test system: RXF 393 renal
[2] = test system: TK-10 renal
[3] = test system: SK-MEL-2 melanoma
[4] = test system: SF-268 CNS
[5] = test system: HS 578T breast
[6] = test system: A549 NSCLC
[7] = test system: A498 renal
[8] = test system: HT29 colon
[9] = test system: NCI-H226 lung
[10] = test system: LOX IMVI melanoma
[11] = test system: MDA-MB-231 breast
[12] = test system: NCI-H522 lung
[13] = test system: UACC-62 melanoma
[14] = test system: KM12 colon
[15] = test system: CAKI-1 renal
[16] = test system: RPMI-8226 leukemia
[17] = test system: NCI/ADR-RES ovarian
[18] = test system: NCI-H23 lung
[19] = test system: OVCAR-3 ovarian
[20] = test system: UACC-257 melanoma
[21] = test system: SN12C renal
[22] = test system: OVCAR-4 ovarian
[23] = test system: SW-620 colon
[24] = test system: OVCAR-5 ovarian
[25] = test system: K-562 leukemia
[26] = test system: OVCAR-8 ovarian
[27] = test system: DU-145 prostate
[28] = test system: SF-539 CNS
[29] = test system: NCI-H460 lung
[30] = test system: MCF7 breast
[31] = test system: SF-295 CNS
[32] = test system: HCC-2998 colon
[33] = test system: HOP-92 NSCLC
[34] = test system: SNB-19 CNS
[35] = test system: UO-31 renal
[36] = test system: M14 melanoma
[37] = test system: SK-MEL-5 melanoma
[38] = test system: CCRF-CEM leukemia
[39] = test system: MDA-MB-435
[40] = test system: PC-3 prostate
[41] = test system: 786-0 renal
[42] = test system: HOP-62 NSCLC
[43] = test system: HCT-116 colon
[44] = test system: COLO 205 colon
[45] = test system: SR leukemia
[46] = test system: HL-60(TB) leukemia
[47] = test system: BT-549 breast
[48] = test system: ACHN renal
[49] = test system: MOLT-4 leukemia
[50] = test system: T-47D breast
[51] = test system: IGROV1 ovarian
[52] = test system: EKVX NSCLC
[53] = test system: HCT-15 colon
[54] = test system: SK-OV-3 ovarian
[55] = test system: U251 CNS
[56] = test system: SK-MEL-28 melanoma
[57] = test system: MALME-3M melanoma

SMILES: C#C[C@]1(O)CC[C@H]2[C@@H]3CC=C4c5nc(Nc6ccccn6)sc5CC[C@]4(C)[C@H]3CC[C@@]21C
- GI50 [1]: 0.218 µM
- TGI [1]: 0.468 µM
- GI50 [2]: 2.22 µM
- TGI [2]: 5.08 µM
- GI50 [3]: 0.603 µM
- TGI [3]: 3.08 µM
- GI50 [4]: 1.85 µM
- TGI [4]: 6.87 µM
- GI50 [5]: 0.421 µM
- TGI [5]: 2.4 µM
- GI50 [6]: 1.94 µM
- TGI [6]: 11.1 µM
- GI50 [7]: 0.26 µM
- TGI [7]: 1.19 µM
- GI50 [8]: 1.6 µM
- TGI [8]: 3.94 µM
- GI50 [9]: 1.51 µM
- TGI [9]: 3.91 µM
- GI50 [10]: 1.29 µM
- TGI [10]: 2.59 µM
- GI50 [11]: 1 µM
- TGI [11]: 3.11 µM
- GI50 [12]: 1.86 µM
- TGI [12]: 4.12 µM
- GI50 [13]: 1.15 µM
- TGI [13]: 2.68 µM
- GI50 [14]: 1.7 µM
- TGI [14]: 4.5 µM
- GI50 [15]: 1.26 µM
- TGI [15]: 3.1 µM
- GI50 [16]: 0.182 µM
- TGI [16]: 0.602 µM
- GI50 [17]: 1.72 µM
- TGI [17]: 6.1 µM
- GI50 [18]: 1.67 µM
- TGI [18]: 6.64 µM
- GI50 [19]: 1.43 µM
- TGI [19]: 3.29 µM
- GI50 [20]: 0.778 µM
- TGI [20]: 2.55 µM
- GI50 [21]: 1.75 µM
- TGI [21]: 3.62 µM
- GI50 [22]: 2.94 µM
- TGI [22]: 9.42 µM
- GI50 [23]: 1.24 µM
- TGI [23]: 2.91 µM
- GI50 [24]: 1.65 µM
- TGI [24]: 4.44 µM
- GI50 [25]: 0.348 µM
- TGI [25]: 2.13 µM
- GI50 [26]: 1.77 µM
- TGI [26]: 7.89 µM
- GI50 [27]: 2.16 µM
- TGI [27]: 9.16 µM
- GI50 [28]: 0.185 µM
- TGI [28]: 0.744 µM
- GI50 [29]: 1.21 µM
- TGI [29]: 2.83 µM
- GI50 [30]: 0.968 µM
- TGI [30]: 3.73 µM
- GI50 [31]: 0.218 µM
- TGI [31]: 0.489 µM
- GI50 [32]: 1.95 µM
- TGI [32]: 5.13 µM
- GI50 [33]: 1.8 µM
- TGI [33]: 4.43 µM
- GI50 [34]: 1.37 µM
- TGI [34]: 5.59 µM
- GI50 [35]: 1.21 µM
- TGI [35]: 2.64 µM
- GI50 [36]: 1.14 µM
- TGI [36]: 3.21 µM
- GI50 [37]: 1.6 µM
- TGI [37]: 2.98 µM
- GI50 [38]: 0.482 µM
- TGI [38]: 4.18 µM
- GI50 [39]: 1.55 µM
- TGI [39]: 4.45 µM
- GI50 [40]: 0.489 µM
- TGI [40]: 3.99 µM
- GI50 [41]: 0.389 µM
- TGI [41]: 1.69 µM
- GI50 [42]: 1.11 µM
- TGI [42]: 2.95 µM
- GI50 [43]: 1.12 µM
- TGI [43]: 2.73 µM
- GI50 [44]: 1.81 µM
- TGI [44]: 4.05 µM
- GI50 [45]: 0.542 µM
- TGI [45]: 3.24 µM
- GI50 [46]: 0.398 µM
- TGI [46]: 1.96 µM
- GI50 [47]: 0.692 µM
- TGI [47]: 2.82 µM
- GI50 [48]: 1.37 µM
- TGI [48]: 10.2 µM
- GI50 [49]: 0.344 µM
- TGI [49]: 1.7 µM
- GI50 [50]: 1.81 µM
- TGI [50]: 5.98 µM
- GI50 [51]: 2.27 µM
- TGI [51]: 10.9 µM
- GI50 [52]: 1.72 µM
- TGI [52]: 9.14 µM
- GI50 [53]: 1.27 µM
- TGI [53]: 2.94 µM
- GI50 [54]: 1.32 µM
- TGI [54]: 5.29 µM
- GI50 [55]: 0.541 µM
- TGI [55]: 2.13 µM
- GI50 [56]: 0.279 µM
- TGI [56]: 1.01 µM
- GI50 [57]: 0.677 µM
- TGI [57]: 2.32 µM

SMILES: COC(=O)C1=C(OC(=O)c2ccc(Cl)cc2)C(C(=O)OC)[C@@]2(O)[C@@H](C(=O)OC)C(c3ccccc3C(F)(F)F)C[C@@H]1[C@@H]2C(=O)OC (some centres undefined)
- GI50 [1]: 2.14 µM
- TGI [1]: 5.43 µM
- GI50 [2]: 33 µM
- TGI [2]: 78.8 µM
- GI50 [3]: 15.5 µM
- TGI [3]: 33.9 µM
- GI50 [4]: 11 µM
- TGI [4]: > 100 µM
- GI50 [5]: 3.96 µM
- TGI [5]: 24.2 µM
- GI50 [6]: 3.59 µM
- TGI [6]: 28.8 µM
- GI50 [7]: 1.76 µM
- TGI [7]: 7.25 µM
- GI50 [8]: 3.54 µM
- TGI [8]: > 100 µM
- GI50 [11]: 2.07 µM
- TGI [11]: 6.19 µM
- GI50 [12]: 16.4 µM
- TGI [12]: 43.6 µM
- GI50 [13]: 1.8 µM
- TGI [13]: 3.65 µM
- GI50 [14]: 23.9 µM
- TGI [14]: 64.2 µM
- GI50 [15]: 13.9 µM
- TGI [15]: 36.1 µM
- GI50 [16]: 2.99 µM
- TGI [16]: > 100 µM
- GI50 [17]: 3.11 µM
- TGI [17]: > 100 µM
- GI50 [18]: 3.47 µM
- TGI [18]: 16.8 µM
- GI50 [19]: 20.3 µM
- TGI [19]: 47.9 µM
- GI50 [20]: 2.76 µM
- TGI [20]: 8.32 µM
- GI50 [21]: 2.08 µM
- TGI [21]: 6.66 µM
- GI50 [23]: 3.83 µM
- TGI [23]: 21.1 µM
- GI50 [24]: 54.2 µM
- TGI [24]: > 100 µM
- GI50 [25]: 3.36 µM
- TGI [25]: > 100 µM
- GI50 [26]: 2.72 µM
- TGI [26]: 9.87 µM
- GI50 [27]: 6.1 µM
- TGI [27]: > 100 µM
- GI50 [28]: 5.13 µM
- TGI [28]: > 100 µM
- GI50 [29]: 6.53 µM
- TGI [29]: 77.1 µM
- GI50 [30]: 10.7 µM
- TGI [30]: 87.5 µM
- GI50 [32]: 5.54 µM
- TGI [32]: > 100 µM
- GI50 [33]: 6.27 µM
- TGI [33]: > 100 µM
- GI50 [34]: 6.44 µM
- TGI [34]: > 100 µM
- GI50 [35]: 12.6 µM
- TGI [35]: 31.6 µM
- GI50 [36]: 3.16 µM
- TGI [36]: 13 µM
- GI50 [37]: 3.46 µM
- TGI [37]: 12.4 µM
- GI50 [38]: 3.54 µM
- TGI [38]: 31.2 µM
- GI50 [39]: 17.6 µM
- TGI [39]: 50.2 µM
- GI50 [40]: 4.5 µM
- TGI [40]: > 100 µM
- GI50 [41]: 4.86 µM
- TGI [41]: > 100 µM
- GI50 [42]: 9.24 µM
- TGI [42]: > 100 µM
- GI50 [43]: 2.92 µM
- TGI [43]: 11.4 µM
- GI50 [44]: 3.31 µM
- TGI [44]: > 100 µM
- GI50 [45]: 3.94 µM
- TGI [45]: > 100 µM
- GI50 [47]: 4.16 µM
- TGI [47]: 63.6 µM
- GI50 [48]: 3.19 µM
- TGI [48]: > 100 µM
- GI50 [49]: 2.7 µM
- TGI [49]: 7.86 µM
- GI50 [50]: 4.82 µM
- TGI [50]: > 100 µM
- GI50 [52]: 8.1 µM
- TGI [52]: > 100 µM
- GI50 [53]: 2.87 µM
- TGI [53]: 14.6 µM
- GI50 [54]: 5.99 µM
- TGI [54]: 60 µM
- GI50 [55]: 3.26 µM
- TGI [55]: 21.4 µM
- GI50 [56]: 6.69 µM
- TGI [56]: > 100 µM

Reference: PubChem BioAssay (NCI)
